This is an account of results in patent US20230069174A1, “NITROGEN-CONTAINING HETEROCYCLIC AUTOTAXIN INHIBITOR, AND COMPOSITION CONTAINING SAME AND USE THEREOF” (SICHUAN HAISCO PHARMACEUTICAL CO., LTD., priority 2019, published 2023).

Molecules are shown by their SMILES. pIC50: −log10 of the molar value. Like-named read-outs stand apart in the source and are kept apart here.

A short description of data set [1]: Pharmacokinetic experiment in mice (single dose iv and intragastric). As to conditions: mouse, plasma, male C57 mice; for bioavailability: po 10 mg/kg vs iv 2.5 mg/kg, read-out: F (bioavailability). It counts as in vivo. The procedure: Experimental objective: In this experiment, a single dose of each test compound was administered to C57 mice intravenously and intragastrically, the concentrations of the compounds 35, 37 and 38 in plasma of the mice were measured, and the pharmacokinetic characteristics and bioavailability of each test compound in mice were evaluated.
Experimental animals: Male C57 mice, 20-25 g, 6-8 weeks old, 18 mice/compound. The experimental animals were purchased from CHENGDU DOSSY EXPERIMENTAL ANIMALS CO., LTD.
Experimental method: On the day of the experiment, 18 C57 mice were randomly grouped according to their body weight. The animals were fasted with water available for 12 to 14 hours one day before the administration of a test compound, and were fed 4 hours after the administration.
Before and after the administration, 0.08 ml of blood was taken from the orbit of the […] under isoflurane anesthesia, and placed in an EDTAK2 centrifuge tube. Centrifugation was carried out at 5000 rpm at 4° C. for 10 min and the plasma was collected.
Time points for plasma collection in G1 group: 0, 5, 15, 30 min, 1, 2, 4, 6, 8, and 24 h.
Time points for plasma collection in G2 group: 0, 15, 30 min, 1, 2, 4, 6, 8, and 24 h.
Before analysis and detection, all samples were stored at −80° C.
30 μL of each of plasma sample, standard curve and quality control sample was taken, and 200 μL of acetonitrile solution containing internal standard was added, and the mixture was homogeneously mixed by vortex, and then centrifuged at 12000 rpm for 10 min at 4° C. The supernatant was taken and added into a 96-well plate and analyzed by LC-MS/MS.
The main pharmacokinetic parameters were analyzed by non-compartmental model using WinNonlin 8.0 software.

In a further data set the target is T1, ATX (Homo sapiens, UniProt Q13822).
T1 construct: ATX activity was detected by detecting LPA production in pooled human plasma; from tissue; host or cells: pooled human plasma (heparin-anticoagulated whole blood, centrifuged)
Briefly: ATX inhibitory activity: LPA production in pooled human plasma, LC-MS-MS. As to conditions: 37° C. 2 h. It counts as biochemical. As to the method:
Experimental subject: compounds to be tested.
ATX activity was detected by detecting LPA production in pooled human plasma. Whole blood anticoagulated with heparin was collected and centrifuged, and then plasma was collected. 5-μL gradient dilution of the compound to be tested or DMSO was added to 95-μL plasma, incubated at 37° C. for 2 h, then a stop solution (40 mM disodium hydrogen phosphate buffer, containing a buffer solution (containing 30 mM citric acid, pH=4)) was added. LPA in plasma was detected by LC-MS-MS before and after incubation.
LPA (18:2) and (20:4) LC-MS-MS analytical method
Using a 1.5 mL EP tube, 3.0 μL of each of the working solutions for standard curve and quality control was taken and added to 27.0 μL of water. After homogeneously mixing by vortex, 400 μL of internal standard solution was added. After homogeneously mixing by vortex, the mixture was centrifuged at 4° C. for 10 min. 180 μL of supernatant was taken and added into a 96-well plate, waiting for sample injection.
10 μL of the compound to be tested (10 mg/ml) was precisely pipetted into an EP tube, 990 μL of DMSO solution was added, and the mixture was vortexed to completely dissolve to obtain a solution (100 μg/mL).
Inhibition rate of ATX receptor activity was calculated in the following way: inhibition rate %=((LPAc−LPA0)−(LPAi−LPA0))/(LPAc−LPA0)*100%, wherein LPAc was the LPA content in plasma after DMSO was added and incubated for 2 h, LPA0 was the LPA content in plasma before DMSO was added for incubation, and LPAi was the LPA content in plasma after test compound was added and incubated for 2 h.

The mark [2] stands for this setting: LPA 18:2 readout, read-out: Inhibitory activity against ATX receptor, LPA 18:2 IC50.
The mark [3] stands for this setting: LPA 20:4 readout, read-out: Inhibitory activity against ATX receptor, LPA 20:4 IC50.

With `O=C(Cc1nnc(-c2cnc(N[C@@H]3Cc4ccc(C(F)F)cc4C3)nc2)o1)N1CCc2[nH]nnc2C1` [Compound 37, (R)-2-(5-(2-((5-(difluoromethyl)-2,3-dihydro-1H-inden-2-yl)amino)pyrimidin-5-yl)-1,3,4-oxadiazol-2-yl)-1-(1,4,6,7-tetrahydro-5H-[1,2,3]triazolo[4,5-c]pyridin-5-yl)ethan-1-one], the bioavailability in data set [1] was 17.8%. In data set [1] (iv 2.5 mg/kg), this compound showed an AUC of 3790 ng·h/mL, a C0 of 6640 ng/mL and a half-life of 53.3 min. In data set [1] (po 10 mg/kg), the AUC is 2700 ng·h/mL, the Cmax turned out to be 1600 ng/mL, the Tmax was found to be 15 min and the half-life was 78.6 min. The pIC50 at ATX (setting [2]) is 8.32. For the same compound, the pIC50 at ATX (setting [3]) was 8.32.

`O=C(Cc1nnc(-c2cnc(N[C@@H]3Cc4ccc(C(F)(F)F)cc4C3)nc2)o1)N1CCc2[nH]nnc2C1` [Compound 35, (R)-1-(1,4,6,7-tetrahydro-5H-[1,2,3]triazolo[4,5-c]pyridin-5-yl)-2-(5-(2-((5-(trifluoromethyl)-2,3-dihydro-1H-inden-2-yl)amino)pyrimidin-5-yl)-1,3,4-oxadiazol-2-yl)ethan-1-one]: the bioavailability in data set [1] was found to be 35.6%. In data set [1] (iv 2.5 mg/kg), this compound gave an AUC of 6780 ng·h/mL, a C0 of 6850 ng/mL and a half-life of 61.2 min. Further, in data set [1] (po 10 mg/kg), the AUC was found to be 9650 ng·h/mL, the Cmax turned out to be 3370 ng/mL, the Tmax amounted to 30 min and the half-life is 56.8 min. The pIC50 at ATX (setting [2]) is 8.66. Further, the pIC50 at ATX (setting [3]) is 8.65.

`N#Cc1ccc2c(c1)CC(Nc1ncc(-c3nnc(CC(=O)N4CCc5[nH]nnc5C4)o3)cn1)C2` (centres unmarked) [Compound 8, 2-((5-(5-(2-(6,7-dihydro-1H-[1,2,3]triazolo[4,5-c]pyridin-5(4H)-yl)-2-oxoethyl)-1,3,4-oxadiazol-2-yl)pyrimidin-2-yl)amino)-2,3-dihydro-1H-indene-5-carbonitrile]: the pIC50 at ATX (setting [2]) is 8.23; on ATX (setting [3]), 8.21.

As to `C[C@@](F)(C(=O)N1CCc2[nH]nnc2C1)c1nnc(-c2cnc(NC3Cc4ccccc4C3)nc2)o1` (single isomer, unassigned) [Compound 38], the bioavailability in data set [1] was found to be 59.3%. In data set [1] (iv 2.5 mg/kg), this compound had an AUC of 1480 ng·h/mL, a C0 of 3330 ng/mL and a half-life of 33.1 min. For the same compound, in data set [1] (po 10 mg/kg), the AUC came out at 3500 ng·h/mL, the concentration peaked (Cmax) at 3590 ng/mL, the Tmax worked out at 15 min and the half-life is 48.3 min. Besides, on ATX (setting [2]), the pIC50 was 8.26. Moreover, on ATX (setting [3]), the pIC50 was 8.23.

What is called bioavailability is the share of a dose that reaches the circulation, judged against a reference dose that is usually intravenous. In general, AUC refers to concentration integrated over time. As a reminder, the half-life is the time in which the quantity being followed falls by half. Read a high half-life as slow loss. Usually Cmax stands for the maximum level reached in the sampled fluid or tissue. A word on the Tmax: it is the time at which the peak concentration occurs. One may read the pIC50 as the IC50 on a negative log10 scale, so that one unit is a factor of ten.
